Patent US20070244190A1, “Neobritannilactone B and acetyl neobritannilactone B” (priority 2006, published 2007)

What was measured:
[1] = test system: poly-(ADP-ribose) polymerase (PARP) in AGS cells; assay: Western blot of PARP cleavage; assay type: cell-based, human; settings: for PARP cleavage (85-kDa fragment): AGS cells treated for 24, FIG. 6A
Description: Western Blotting. The nuclear and cytosolic proteins were isolated from AGS cells after treatment with 60 μM for 0, 3, 6, 9, 12, 18, and 24 h. The total proteins were extracted via the addition of 200 μL of gold lysis buffer (50 mM Tris-HCl, pH 7.4; 1 mM NaF; 150 mM NaCl; 1 mM EGTA; 1 mM phenylmethanesulfonyl fluoride; 1% NP-40; and 10 μg/mL leupeptin) to the cell pellets on ice for 30 min, followed by centrifugation at 10,000 g for 30 min at 4° C. The cytosolic fraction (supernatant) proteins were measured by Bio-Rad protein assay (Bio-Rad Laboratories, Munich, Germany). The samples (50 μg of protein) were mixed with 5× sample buffer containing 0.3 M Tris-HCl (pH 6.8), 25% 2-mercaptoethanol, 12% sodium dodecyl sulfate (SDS), 25 mM EDTA, 20% glycerol, and 0.1% bromophenol blue. The mixtures were boiled at 100° C. for 5 min and were subjected to 12% SDS-polyacrylamide minigels at a constant current of 20 mA. Subsequently, electrophoresis was ordinarily carried out on SDS-polyacrylamide gels. For electrophoresis, proteins on the gel were electrotransferred onto an immobile membrane (PVDF; Millipore Corp., Bedford, Mass.) with transfer buffer composed of 25 mM Tris-HCl (pH 8.9), 192 mM glycine, and 20% methanol. The membranes were blocked with blocking solution containing 20 mM Tris-HCl and then immunoblotted with primary antibodies including, anti-Bcl-XL, anti-β-actin (Transduction Laboratory, Lexington, Ky.), anti-PARP (UBI, Inc., Lake Placid, N.Y.), at room temperature for 1 h. Detection was achieved by measuring the chemiluminescence of blotting agent (ECL, Amersham Corp., Arlington Heights, Ill.), after exposure of the filters to KODAK X-OMAT films.
Activation of caspase-3 leads to the cleavage of a number of proteins, one of which is poly-(ADP-ribose) polymerase (PARP). A hallmark of apoptosis is that PARP (116 kDa) is cleaved to produce an 85-kDa fragment. PARP cleavage was examined in cells treated with NAB or ANAB for 24.

[2] = test system: AGS cells; assay: Morphological changes by light microscopy; assay type: cell-based, human; settings: 10 μM, within 24 h, FIG. 5
Excerpt: FIG. 5 provides light microscopic images showing the morphological changes of AGS cells, including the induction of apoptotic bodies from AGS cells, induced by NAB and ANAB.
(§1) Physiological cell death is characterized by apoptotic morphology, including chromatin condensation, membrane blebbing, internucleosome degradation of DNA, and apoptotic body formation. Nucleosomal DNA ladders visible on agarose gel after staining with ethidium bromide are typical of apoptotic cell samples. To investigate whether the cytotoxic effects of NAB and ANAB observed in AGS cells were due to the presence of apoptotic cell death, cells were treated with […] (0-25 μM) for 24 h and DNA fragmentation analyses were performed. […] FIG. 5.

[3] = test system: AGS cells; assay: Sub-G1 flow cytometry (Example 3); assay type: cell-based, human; settings: 24 h, FIG. 3
Description: Flow Cytometry. AGS cells (2×10^5) were cultured in 60-mm Petri dishes and incubated for 24 h. The cells were then harvested, washed with PBS, resuspended in 200 μL of PBS, and fixed in 800 μL of iced 100% ethanol at −20° C. After being left to stand overnight, the cell pellets were collected by centrifugation, resuspended in 1 mL of hypotonic buffer (0.5% Triton X-100 in PBS and 0.5 μg/mL RNase), and incubated at 37° C. for 30 min. Next, 1 mL of propidium iodide solution (50 μg/mL) was added, and the mixture was allowed to stand on ice for 30 min. Fluorescence emitted from the propidium iodide-DNA complex was quantitated after excitation of the fluorescent dye by FACScan cytometry (Becton Dickinson, San Jose, Calif.).
The cytotoxic effects of NAB and ANAB in AGS cells were analyzed to assess their consistency with the specific changes that characterize apoptosis, such as DNA fragmentation. To investigate the induction of a sub-G1 cell population, the DNA content of AGS cells treated with various concentrations of NAB and ANAB was analyzed by flow cytometry. Cells were treated with NAB and ANAB, and stained with propidum iodide.

[4] = test system: human AGS gastric carcinoma cell lines; assay: Cell survival assay (Example 3), trypan blue exclusion; assay type: cell-based; settings: 24 h treatment, Example 3, FIG. 2, read-out: IC50, cell viability
Description: Cell Survival Assay. The human AGS gastric carcinoma cell lines (CCRC 60102) were maintained as described in Section 8.2 above. For assays, cells (5×10^4) were plated in 35-mm Petri dishes. The next day, the medium was changed and NAB and ANAB were added. Control cells were treated with DMSO to a final concentration of 0.05% (v/v). At the end of incubation, cells were harvested for cell count using a hemocytometer.
To test the effects of NAB and ANAB on cell viability, human gastric carcinoma cells were treated with different concentrations of NAB and ANAB. After 24 h treatment, the number of live cells was determined by trypan blue exclusion assay. FIG. 2. Both compounds were potent inhibitors of cell viability.

[5] = test system: AGS cells; assay: DNA fragmentation by agarose gel electrophoresis; assay type: cell-based, human; settings: 15 μM, 24 h, FIG. 4
Description: DNA Extraction and Electrophoresis Analysis. The AGS human cancer cells were harvested, washed with phosphate-buffered saline (PBS), and then lysed with digestion buffer containing 0.5% sarkosyl, 0.5 mg/mL proteinase K, 50 mM tris(hydroxy methyl)aminomethan (pH 8.0), and 10 mM EDTA at 56° C. overnight and treated with RNase A (0.5 μg/mL) for 3 h at 56° C. The DNA was extracted by phenol/chloroform/isoamyl (25:24:1) before loading and was analyzed by 2% agarose gel electrophoresis. The agarose gels were run at 50 V for 120 min in Tris-borate/EDTA electrophoresis buffer (TBE). Approximately 20 μg of DNA was loaded in each well and visualized under UV light, and photographed.
as §1

| Compound | PARP cleavage over time ([1]; 15 μM, time course, FIG. 6B) | PARP cleavage (85-kDa fragment) [1] | morphological changes [2] | percentage of apoptotic AGS cells ([3]; 5 μM) | percentage of apoptotic AGS cells ([3]; 10 μM) | percentage of apoptotic AGS cells ([3]; 15 μM) | percentage of apoptotic AGS cells ([3]; 25 μM) | IC50 [4] | DNA fragmentation (DNA ladders) [5] |
| --- | --- | --- | --- | --- | --- | --- | --- | --- | --- |
| C=C1C(=O)O[C@H]2/C=C(\C)CC/C=C(\C)C[C@H](OC(C)=O)[C@@H]12 [Compound 4, acetyl neobritannilactone B] | time-dependent proteolytic cleavage of PARP | PARP proteolytic fragment was found | significant morphological changes and chromosomal condensation | 24% | 64% | 81% | 92% | 4.2 µM | significant DNA ladders were observed |
| C=C1C(=O)OC2C=C(C)CCC=C(C)CC(O)C12 (stereo not drawn) [Compound 3, 4-hydroxy-3α,4,5,8,9,11α-hexahydro-6,10-dimethyl-3-methylene-cyclodeca[b]furan-2(3H)-one] |  | PARP proteolytic fragment was found |  | 14% | 27% | 63% | 86% | 7.6 µM |  |
